Among the data in PubChem BioAssay (NCI) are GI50 and TGI values, retold here.

What all share (experiment): growth of human tumour cells (NCI), 48 h
In test [1] the test system is HOP-62 NSCLC.
The test system of test [2] is DU-145 prostate.
The subject of test [3] is SK-MEL-28 melanoma.
For test [4], the system named is A498 renal.
Test [5] deals with UO-31 renal.
Test [6] relates to MOLT-4 leukemia.
For test [7], the system named is SR leukemia.
For test [8], the system named is NCI-H522 lung.

The structures appear in SMILES notation. “And” between values parts separate entries of the source, which are not always exact repeats. Equal entries are not always repeated.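 48-hour exposure; five concentrations; linearly interpolated endpoints. Here, GI50 denotes the concentration required for 50% inhibition of growth. At the TGI there is no net growth.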

As for `Oc1nc(N2CCOCC2)sc1/C=C1\C=Nc2ccccc21`, the GI50 in test [1], in test [2], in test [3], in test [4], in test [5] and in test [6] was more than 100 µM each time. Moreover, the GI50 is 82 µM in test [7] and more than 100 µM in test [8]. The TGI in test [1], in test [2], in test [3], in test [4], in test [5] and in test [6] was more than 100 µM each time. Besides, the TGI in test [7] and in test [8] was more than 100 µM in each case.

As for `CC(=O)OCC1OC(SC2=N/C(=C\c3ccc(Br)s3)C(=O)N2c2ccccc2)C(OC(C)=O)C(OC(C)=O)C1OC(C)=O` (centres undefined), the TGI in test [1], in test [2], in test [3], in test [4], in test [5] and in test [6] was more than 100 µM in each case. In addition, the TGI in test [7] was more than 100 µM; in test [8] it was > 100 µM and 94.3 µM. For the same molecule, the GI50 was > 100 µM and 42.8 µM in test [2]; 71.4 µM and 32.7 µM in test [5]; > 100 µM and 37.7 µM in test [6]; 35.6 µM and 9.68 µM in test [7].

Consider `CCCCCN(CCCCC)CCC[C@@H](C)[C@H]1CC[C@H]2[C@@H]3[C@H](OCCCN)C[C@@H]4C[C@H](OCCCN)CC[C@]4(C)[C@H]3C[C@H](OCCCN)[C@]12C`, for which the GI50 in test [1] is 5.23 µM; in test [2], 11.1 µM; in test [3], 2.46 µM; in test [4], 10.2 µM; in test [5] it was 14.1 µM; in test [6], 3.85 µM. Besides, the GI50 in test [7] was 2.38 µM; in test [8] it was 2.98 µM. The TGI in test [1] was determined as 23.5 µM; in test [2], 23.6 µM; in test [3], 12.5 µM; in test [4] it was 60.7 µM; in test [5], 51.7 µM; in test [6], 14.4 µM. The TGI in test [7] turned out to be 9.28 µM; in test [8], 12.3 µM.

For the molecule `CCCN(CCC)c1ccc(/C=N/NC(=O)c2cccnc2)c(C)c1`, the GI50 was 18.2 µM in test [1]; 16.4 µM in test [2]; 16.4 µM in test [3]; 1.06 µM in test [4]; 15.6 µM in test [5]; 16.5 µM in test [6]. Further, the GI50 was 8.15 µM in test [7] and 12.6 µM in test [8]. Also, the TGI is 43.3 µM in test [1]; 43.9 µM in test [2]; 43.1 µM in test [3]; 3.54 µM in test [4]; 38.1 µM in test [5]; 42.6 µM in test [6]. The figures for the TGI in test [7] and in test [8] were 41.7 µM and 30 µM, respectively.

Consider `COc1ccc(Nc2ncc(I)c(NCCCNC(=O)C3CCC3)n2)cc1`, for which the GI50 was 1.64 µM in test [1]; 9.21 µM in test [2]; 18 µM in test [3]; 7.25 µM in test [4]; 0.73 µM in test [5]; 4.32 µM in test [6]. Moreover, the GI50 in test [7] is 4.91 µM; in test [8] it was 20.9 µM. The TGI in test [1] is 21.8 µM; in test [2] it was more than 100 µM; in test [3], more than 100 µM; in test [4], 21.7 µM; in test [5], 3.85 µM; in test [6] it was more than 100 µM. Moreover, the TGI in test [7] and in test [8] was more than 100 µM in each case.

`O=c1[nH]c(-c2ccc(Cl)c(Cl)c2)cn1-c1ccc(Cl)cc1`: the GI50 in test [1] was 16.3 µM; in test [2], 29.1 µM; in test [3] it was 59.6 µM; in test [4], 22.2 µM; in test [5], 25.4 µM; in test [6] it was 20.8 µM. The GI50 in test [7] was 4.64 µM; in test [8] it was 44.3 µM. In addition, the TGI in test [1] is 31.9 µM; in test [2] it was more than 100 µM; in test [3], more than 100 µM; in test [4], 47.6 µM; in test [5], 60.5 µM; in test [6], 38.9 µM. Moreover, the TGI in test [7] was 16.2 µM; in test [8], more than 100 µM.

With `COc1ccc(OC)c(N2CC(O)=C(c3nc4ccccc4s3)C2=N)c1`, the GI50 in test [1] was more than 100 µM; in test [2], more than 100 µM; in test [3], 49.5 µM; in test [4], 18.9 µM; in test [5] it was 36.2 µM; in test [6], 4.16 µM. For the same molecule, the values for the GI50 in test [7] and in test [8] were 6.77 µM and 17.9 µM, respectively. The TGI in test [1] is more than 100 µM; in test [2], more than 100 µM; in test [3], more than 100 µM; in test [4], 59.6 µM; in test [5], more than 100 µM; in test [6], more than 100 µM. Also, the TGI in test [7] was more than 100 µM; in test [8] it was 78.1 µM.

Turning to `COc1cc2c(cc1OC)[C@@H]1C(=O)c3ccc4c(c3O[C@@H]1CO2)C[C@H](C(C)C)O4`, the GI50 was 9.23 µM in test [1]; 14.5 µM in test [2]; 15.4 µM in test [3]; 0.661 µM in test [4]; 3.75 µM in test [5]; 6.81 µM in test [6]. For the same molecule, the GI50 in test [7] was 1.42 µM; in test [8] it was 0.961 µM. Moreover, the TGI in test [1] is more than 60.6 µM; in test [2], more than 100 µM; in test [3], more than 58.2 µM; in test [4], more than 31 µM; in test [5] it was 97.9 µM; in test [6], more than 69.2 µM. The same molecule showed a TGI in test [7] of more than 23.6 µM.

For `COc1ccc(C2c3ccc4ccccc4c3Oc3ncn(CCCn4ccnc4)c(=N)c32)cc1OC` (centres undefined), the GI50 in test [1] is 5.03 µM; in test [2], 5.49 µM; in test [3], 1.79 µM; in test [4], 1.5 µM; in test [5], 3.75 µM; in test [6], 2.59 µM. The GI50 in test [7] is 1.57 µM; in test [8], 1.87 µM. Also, the TGI is 18.4 µM in test [1]; 18.2 µM in test [2]; 3.5 µM in test [3]; 4.59 µM in test [4]; 16.1 µM in test [5]; 6.25 µM in test [6]. Moreover, the TGI in test [7] was determined as 4.15 µM; in test [8], 4.36 µM.
